Measured values as given in patent US6204293A, “Inhibitors of protein isoprenyl transferases” (University of Pittsburgh, priority 1998, dated 2001).
Where a name gives a salt, the structure may show the parent alone.

Biological target: T1, Rat brain protein farnesyltransferase (Rattus norvegicus, UniProt Q02293+Q04631)
T1 construct: Rat brain protein farnesyltransferase activity is measured; from tissue; host or cells: rat brain
Assay: % inhibition of farnesylation, scintillation proximity assay with biotin-K Ras B fragment
Format: biochemical
Conditions: Table 1; 1 × 10^-5 M
Text: The ability of the compounds of the invention to inhibit protein farnesyltransferase or protein geranylgeranyltransferase can be measured according to the method of Moores, et al., J. Biol. Chem. 266: 14603 (1991) or the method of Vogt, et al., J. Biol. Chem. 270:660-664 (1995). In addition, procedures for determination of the inhibition of farnesylation of the oncogene protein Ras are described by Goldstein, et al., J. Biol. Chem., 266:15575-15578 (1991) and by Singh in U.S. Pat. No. 5,245,061.
In addition, in vitro inhibition of protein farnesyltransferase may be measured by the following procedure. Rat brain protein farnesyltransferase activity is measured using an Amersham Life Science commercial scintillation proximity assay kit and substituting a biotin-K Ras B fragment (biotin-[…]CO2 H), 0.1 mM final concentration, for the biotin-lamin substrate provided by Amersham. The enzyme is purified according to Reiss, Y., et al., Cell, 62: 81-88 (1990), utilizing steps one through three.
The % inhibition of protein farnesyltransferase was determined for representative compounds of the invention.

T1 sequence (Q02293 whole entry, one chain of several): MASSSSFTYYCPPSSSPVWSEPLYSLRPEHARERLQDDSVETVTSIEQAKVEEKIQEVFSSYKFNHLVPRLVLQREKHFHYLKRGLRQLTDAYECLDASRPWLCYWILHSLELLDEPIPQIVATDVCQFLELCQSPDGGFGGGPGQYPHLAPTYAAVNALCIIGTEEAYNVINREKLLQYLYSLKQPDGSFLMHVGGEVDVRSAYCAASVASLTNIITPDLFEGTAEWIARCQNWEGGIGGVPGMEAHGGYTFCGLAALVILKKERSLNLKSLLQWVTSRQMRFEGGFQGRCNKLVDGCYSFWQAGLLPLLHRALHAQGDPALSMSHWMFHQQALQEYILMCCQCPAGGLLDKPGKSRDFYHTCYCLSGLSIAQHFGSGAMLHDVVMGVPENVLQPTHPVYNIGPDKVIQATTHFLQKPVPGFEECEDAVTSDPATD

| Structure (SMILES) | % inhibition at 1 × 10^-5 M |
| --- | --- |
| CSCC[C@H](NC(=O)c1ccc(CNc2ccc(-c3ccccc3)cc2)cc1-c1ccccc1)C(=O)O [Example 700] | 68% |
| CSCC[C@H](NC(=O)c1ccc(CNCC(C)(C)CN(C)C)cc1-c1ccccc1)C(=O)O [Example 639] | 44% |
| CSCC[C@H](NC(=O)c1ccc(CNc2cccc(O)c2)cc1-c1ccccc1)C(=O)O [Example 676] | 76% |

Same assay, conditions: Table 2; 1 × 10^-6 M

| Structure (SMILES) | % inhibition at 1 × 10^-6 M |
| --- | --- |
| CSCC[C@H](NC(=O)c1ccc(/C=C/c2cnc(Oc3ccccc3)cn2)cc1-c1ccccc1C)C(=O)O [Example 812] | 94% |
| CSCC[C@H](NC(=O)c1ccc(CNCCC2CCCCC2)cc1-c1ccccc1C)C(=O)O.O=C(O)C(F)(F)F [Example 607] | 96% |
| CSCC[C@H](NC(=O)c1ccc(CN(CCc2ccccc2)c2ccccc2)cc1-c1ccccc1C)C(=O)O [Example 507] | 96% |
| CSCC[C@H](NC(=O)c1ccc(NCC2CNCCN2)cc1-c1ccccc1)C(=O)O (some centres unmarked) [Example 286] | 84% |
| CSCC[C@H](NC(=O)c1ccc(CN(Cc2ccccc2)Cc2ccccc2)cc1-c1ccccc1C)C(=O)O [Example 512] | 94% |
| CSCC[C@H](NC(=O)c1ccc(NCC(CO)CC2CCCCC2)cc1-c1ccccc1C)C(=O)O (some centres unmarked) [Example 479] | 95% |
| CSCC[C@H](NC(=O)c1ccc(CNCCN2CCCC2)cc1-c1ccccc1)C(=O)O [Example 641] | 34% |
| CSCC[C@H](NC(=O)c1ccc(CN(Cc2ccc(C(F)(F)F)cc2)c2ccccc2)cc1-c1ccccc1C)C(=O)O [Example 782] | 96% |
| CSCC[C@H](NC(=O)c1ccc(CN(CC(c2ccccc2)c2ccccc2)c2ccccc2)cc1-c1ccccc1C)C(=O)O [Example 509] | 77% |
| Cc1ccccc1-c1cc(CN(C2CC2)C2(CC3CCCCC3)CCCC2)ccc1C(=O)N[C@@H](CCS(C)(=O)=O)C(=O)O [Example 346] | 98% |
| CSCC[C@H](NC(=O)c1ccc(CCc2cnc(Oc3ccccc3)cn2)cc1-c1ccccc1C)C(=O)O [Example 813] | 95% |
| CSCC[C@H](NC(=O)c1ccc(CNc2cccc(I)c2)cc1-c1ccccc1)C(=O)O [Example 677] | 37% |

Same assay, conditions: Table 3; 1 × 10^-7 M

| Structure (SMILES) | % inhibition at 1 × 10^-7 M |
| --- | --- |
| CSCC[C@H](NC(=O)c1ccc(CNCCc2c[nH]c3ccccc23)cc1-c1ccccc1C)C(=O)O [Example 519] | 89% |
| CCSC[C@H](CC1CCCCC1)N(Cc1ccc(C(=O)N[C@@H](CCSC)C(=O)O)c(-c2ccccc2C)c1)C(C)=O [Example 947] | 79% |
| CSCC[C@H](NC(=O)c1ccc(CCc2ccc(Oc3ccccc3Cl)cc2)cc1-c1ccccc1C)C(=O)O [Example 855] | 92% |
| CSCC[C@H](NC(=O)c1ccc(/C=C/c2ccc(Oc3ccccc3[N+](=O)[O-])cc2)cc1-c1ccccc1C)C(=O)O [Example 856] | 97% |
| CSCC[C@H](NC(=O)c1ccc(CCc2ccccc2Cc2ccccc2)cc1-c1ccccc1C)C(=O)O [Example 458] | 87% |
| CSCC[C@H](NC(=O)c1ccc(CNc2ccc(Oc3ccccc3)cc2)cc1-c1ccccc1C)C(=O)O [Example 864] | 84% |
| CSCC[C@H](NC(=O)c1ccc(CCc2ccc(Oc3ccccc3)nn2)cc1-c1ccccc1C)C(=O)O [Example 811] | 85% |
| CSCC[C@H](NC(=O)c1ccc(CCc2ccc(C3CCCCC3)cc2)cc1-c1ccccc1C)C(=O)[O-].[Li+] [Example 461] | 93% |

Same assay, conditions: Table 4; 1 × 10^-8 M

| Structure (SMILES) | % inhibition at 1 × 10^-8 M |
| --- | --- |
| CSCC[C@H](NC(=O)c1ccc(CN(Cc2ccccc2)c2ccc(C(F)(F)F)cc2)cc1-c1ccccc1C)C(=O)O [Example 853] | 85% |

Same assay, conditions: read-out: % inhibition at 0.01 μM (**); Table 6; ** footnote 0.01 μM (title: 0.01 mM)

| Structure (SMILES) | inhibition at 0.01 µM |
| --- | --- |
| CSCC[C@H](NC(=O)c1ccc(CO[C@@H](CC2CCCCC2)C(=O)N2CCCCC2)cc1-c1ccccc1C)C(=O)O [Example 1052, N-[4-(3-cyclohexyl-N-piperidin-1-ylpropion-2-yloxymethyl)-2-(2-methylphenyl)benzoyl]methionine, lithium salt] | 91% |

Same assay, conditions: read-out: % inhibition at 0.1 μM (*); Table 6; * footnote 0.1 μM (title: 0.1 mM)

| Structure (SMILES) | inhibition at 0.1 µM |
| --- | --- |
| CSCC[C@H](NC(=O)c1ccc(COCCc2cccc(F)c2)cc1-c1ccccc1C)C(=O)O [Example 1274, N-[4-(2-(3-fluorophenyl)ethyloxymethyl-2-(2-methylphenyl)benzoyl]methioninelithium salt] | 89% |
| CCCCC(OCc1ccc(C(=O)N[C@@H](CCSC)C(=O)O)c(-c2ccccc2C)c1)C1CCOCC1 (some centres unmarked) [Example 1282, N-[4-(1-(4-tetrahydropyranyl)pentyloxymethyl-2-(2-methylphenyl)benzoyl]methioninelithium salt] | 69% |

Same assay, conditions: read-out: % inhibition at 1 × 10^-6 M

| Structure (SMILES) | inhibition at 1 µM |
| --- | --- |
| CSCC[C@H](NC(=O)c1ccc(CSCc2ccccc2)cc1-c1ccccc1C)C(=O)O [Example 554, N-[4-benzylthiomethyl-2-(2-methylphenyl)benzoyl]methionine, lithium salt] | 96% |
| CSCC[C@H](NC(=O)c1ccc(OCCOC2CCCCC2)cc1-c1ccccc1C)C(=O)O [Example 565, N-[4-(2-cyclohexyloxy)ethoxy-2-(2-methylphenyl)benzoyl]methionine, lithium salt] | 94% |
| CSCC[C@H](NC(=O)c1ccc(COCc2ccc3ccccc3c2)cc1-c1ccccc1C)C(=O)O [Example 583, N-[4-(naphth-2-ylmethoxymethyl)-2-(2-methylphenyl)benzoyl]methionine lithium salt] | 98% |

Same assay, conditions: read-out: % inhibition at 1 × 10^-6 M; Table 2; 1 × 10^-6 M

| Structure (SMILES) | inhibition at 1 µM |
| --- | --- |
| CSCC[C@H](NC(=O)c1cc(Cc2ccccc2)c(COCc2ccccc2)cc1-c1ccccc1C)C(=O)O [Example 923, N-[5-Benzyl-4-benzyloxymethyl-2-(2-methylphenyl)benzoyl]methionine] | 78% |

Same assay, conditions: read-out: % inhibition at 1 × 10^-7 M

| Structure (SMILES) | inhibition at 0.1 µM |
| --- | --- |
| CSCC[C@H](NC(=O)c1ccc(COCc2ccc(C)cc2)cc1-c1ccccc1C)C(=O)O [Example 579, N-[4-(4-methylbenzyloxymethyl)-2-(2-methylphenyl)benzoyl]methionine lithium salt] | 92% |
| CSCC[C@H](NC(=O)c1ccc(COCc2ccc(C(C)C)cc2)cc1-c1ccccc1C)C(=O)O [Example 940, N-[4-(4-isopropylbenzyloxymethyl)-2-(2-methylphenyl)benzoyl]methionine lithium salt] | 92% |
| CSCC[C@H](NC(=O)c1ccc(COCc2ccc(-c3cccc(F)c3)o2)cc1-c1ccccc1C)C(=O)O [Example 436, N-[4-(5-(3-fluorophenyl)furan-2-ylmethoxymethyl)-2-(2-methylphenyl)benzoyl]methionine lithium salt] | 89% |
| CSCC[C@H](NC(=O)c1ccc(COCc2cnc(C(C)(C)C)s2)cc1-c1ccccc1C)C(=O)O [Example 895, N-[4-(2-t-butylthiazol-5-ylmethoxymethyl)-2-(2-methylphenyl)benzoyl]methionine lithium salt] | 92% |

Same assay, conditions: read-out: % inhibition at 1 × 10^-7 M; Table 3; 1 × 10^-7 M

| Structure (SMILES) | inhibition at 0.1 µM |
| --- | --- |
| CSCC[C@H](NC(=O)c1ccc(CSC2=NCCS2)cc1-c1ccccc1C)C(=O)O [Example 730] | 96% |
| CSCC[C@H](NC(=O)c1ccc(COCc2cnc(-c3ccc(F)cc3)s2)cc1-c1ccccc1C)C(=O)O [Example 900, N-[4-(2-(4-fluorophenylthiazol-5-ylmethoxymethyl)-2-(2-methylphenyl)benzoyl]methioninelithium salt] | 95% |

Same assay, conditions: read-out: % inhibition at 1 × 10^-8 M; Table 4; 1 × 10^-8 M

| Structure (SMILES) | inhibition at 0.01 µM |
| --- | --- |
| CCCCC(OCc1ccc(C(=O)N[C@@H](CCSC)C(=O)O)c(-c2ccccc2C)c1)c1cncs1 (some centres unmarked) [Example 985] | 89% |
